Source: the NIST ThermoML archive (doi:10.1016/j.jct.2004.10.011)

Settings: Liquid, Vibrating tube method

CCC(=O)c1ccccc1 [ethyl phenyl ketone]
mass density [kg/m3]
Settings | 298.15 K | 308.15 K | 318.15 K | 328.15 K
100 kPa | 1005.3 | 996.8 | 988.3 | 979.6
2130 kPa | 1006.4 | 998 | 989.6 | 981.1
4150 kPa | 1007.5 | 999.2 | 990.9 | 982.4
6180 kPa | 1008.7 | 1000.4 | 992.1 | 983.7
8210 kPa | 1009.8 | 1001.6 | 993.3 | 985
10230 kPa | 1010.9 | 1002.8 | 994.6 | 986.2
11250 kPa | 1011.5 | 1003.4 | 995.2 | 986.9
12260 kPa | 1012.1 | 1003.9 | 995.8 | 987.5
14290 kPa | 1013.2 | 1005.1 | 997 | 988.7
16310 kPa | 1014.3 | 1006.2 | 998.1 | 990
18340 kPa | 1015.3 | 1007.3 | 999.3 | 991.2
20370 kPa | 1016.4 | 1008.4 | 1000.4 | 992.3
22390 kPa | 1017.5 | 1009.5 | 1001.6 | 993.5
24420 kPa | 1018.5 | 1010.6 | 1002.7 | 994.7
26450 kPa | 1019.5 | 1011.7 | 1003.8 | 995.9
28470 kPa | 1020.5 | 1012.8 | 1004.9 | 997.1
29490 kPa | 1021 | 1013.2 | 1005.5 | 997.6
30500 kPa | 1021.6 | 1013.8 | 1006 | 998.2
32530 kPa | 1022.5 | 1014.8 | 1007.1 | 999.3
34550 kPa | 1023.5 | 1015.8 | 1008.2 | 1000.4
36580 kPa | 1024.5 | 1016.8 | 1009.2 | 1001.5
38600 kPa | 1025.5 | 1017.9 | 1010.3 | 1002.6
39620 kPa | 1025.9 | 1018.3 | 1010.8 | 1003.2

Cc1ccccc1 [toluene]
mass density [kg/m3]
Settings | 298.15 K | 308.15 K | 318.15 K | 328.15 K
100 kPa | 862.1 | 853 | 843.8 | 834.5
2130 kPa | 863.6 | 854.5 | 845.6 | 836.5
4150 kPa | 865.2 | 856.2 | 847.3 | 838.3
6180 kPa | 866.7 | 857.8 | 849 | 840.1
8210 kPa | 868.2 | 859.3 | 850.6 | 841.8
10230 kPa | 869.6 | 860.9 | 852.3 | 843.5
11250 kPa | 870.4 | 861.7 | 853.1 | 844.4
12260 kPa | 871.1 | 862.4 | 853.9 | 845.2
14290 kPa | 872.5 | 863.9 | 855.4 | 846.9
16310 kPa | 873.9 | 865.4 | 857 | 848.6
18340 kPa | 875.3 | 866.8 | 858.5 | 850.1
20370 kPa | 876.7 | 868.2 | 860 | 851.7
22390 kPa | 878 | 869.6 | 861.5 | 853.3
24420 kPa | 879.3 | 871 | 862.9 | 854.8
26450 kPa | 880.6 | 872.4 | 864.4 | 856.3
28470 kPa | 881.9 | 873.8 | 865.8 | 857.8
29490 kPa | 882.5 | 874.4 | 866.5 | 858.5
30500 kPa | 883.2 | 875 | 867.2 | 859.3
32530 kPa | 884.4 | 876.3 | 868.5 | 860.7
34550 kPa | 885.6 | 877.6 | 869.9 | 862.1
36580 kPa | 886.8 | 878.9 | 871.2 | 863.5
38600 kPa | 888 | 880.1 | 872.5 | 864.9
39620 kPa | 888.6 | 880.7 | 873.2 | 865.5
